Assay results as given in ChEMBL document CHEMBL3826906, “Synthesis of MR-49, a deiodinated analog of tetraiodothyroacetic acid (tetrac), as a novel pro-angiogenesis modulator” (2016).

Legend:
[1] = test system: Mus musculus; assay: Pro-angiogenic activity in Balb/c mouse subcutaneously implanted 4 times with 10 ug/implant compound treated mouse EHS-derived matrigel assessed as FGF2-induced matrigel plug vascularization by measuring increase in hemoglobin level measured after 7 to 10 days by spectrophotometric analysis relative to control; type: functional
[2] = test system: Mus musculus; assay: Antiangiogenic activity in Balb/c mouse subcutaneously implanted 4 times with 10 ug/implant compound treated mouse EHS-derived matrigel assessed as inhibition of FGF2-induced matrigel plug vascularization by measuring decrease in hemoglobin level measured after 7 to 10 days by spectrophotometric analysis relative to control; type: functional

Compound: O=C(O)Cc1cc(I)c(Oc2ccc(O)cc2)c(I)c1
- fold change (FC) [1]: 1.6

Compound: N[C@@H](Cc1cc(I)c(Oc2ccc(O)c(I)c2)c(I)c1)C(=O)O [LIOTHYRONINE]
- fold change (FC) [1]: 1.4

Compound: O=C(O)Cc1cc(I)c(Oc2cc(I)c(O)c(I)c2)c(I)c1 [TETRAC]
- inhibition (INH) [2]: 50%
